Results from PubChem BioAssay AID330 (DTP/NCI, 2004).
“And” between values parts separate entries of the source, which are not always exact repeats. Equal entries are not always repeated. Inconclusive results and toxic doses are left out. How the source made its calls: active means survival T/C of 150% or more; inactive means T/C below 125% in these data.

Test system: P388 leukemia ip, CD2F1 mice, survival T/C
Assay: NCI In Vivo Anticancer Drug Screen. Data for tumor model P388 Leukemia (intraperitoneal) in CD2F1 (CDF1) mice
Details: endpoint: median survival time, higher = longer survival
Summary of the method: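 Mice carrying the transplanted tumor received test compound or vehicle. Survival was recorded in each group, and the value is the treated-group measurement divided by that of the vehicle-treated control group.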

[1] = dose: 200.0 mg/kg/injection, schedule: Q01DX001 (ip), vehicle: Klucel (hydroxypropylcellulose) (HPC)
[2] = dose: 400.0 mg/kg/injection, schedule: Q01DX001 (ip), vehicle: Klucel (hydroxypropylcellulose) (HPC)
[3] = dose: 100.0 mg/kg/injection, schedule: Q01DX009 (ip), vehicle: saline
[4] = dose: 200.0 mg/kg/injection, schedule: Q01DX009 (ip), vehicle: saline
[5] = dose: 50.0 mg/kg/injection, schedule: Q01DX009 (ip), vehicle: saline with Tween-80
[6] = dose: 100.0 mg/kg/injection, schedule: Q01DX009 (ip), vehicle: saline with Tween-80
[7] = dose: 200.0 mg/kg/injection, schedule: Q01DX009 (ip), vehicle: saline with Tween-80
[8] = dose: 50.0 mg/kg/injection, schedule: Q01DX005 (ip), vehicle: Klucel (hydroxypropylcellulose) (HPC)
[9] = dose: 100.0 mg/kg/injection, schedule: Q01DX005 (ip), vehicle: Klucel (hydroxypropylcellulose) (HPC)
[10] = dose: 200.0 mg/kg/injection, schedule: Q01DX005 (ip), vehicle: Klucel (hydroxypropylcellulose) (HPC)
[11] = dose: 50.0 mg/kg/injection, schedule: Q01DX009 (ip), vehicle: saline
[12] = dose: 60.0 mg/kg/injection, schedule: Q01DX005 (ip), vehicle: Klucel (hydroxypropylcellulose) (HPC)

Measured: T/C

COc1ccc2c(c1)[nH]c1c(C)c3ccncc3c(C)c12
inactive: dose: 18.75 mg/kg/injection, schedule: Q04DX002 (ip), vehicle: Klucel (hydroxypropylcellulose) (HPC) 95 % of control | dose: 37.5 mg/kg/injection, schedule: Q04DX002 (ip), vehicle: Klucel (hydroxypropylcellulose) (HPC) 92 % of control | dose: 75.0 mg/kg/injection, schedule: Q04DX002 (ip), vehicle: Klucel (hydroxypropylcellulose) (HPC) 90 % of control | dose: 150.0 mg/kg/injection, schedule: Q04DX002 (ip), vehicle: Klucel (hydroxypropylcellulose) (HPC) 100 % of control

Cn1c(=O)[nH]c(=O)c2nc(-c3ccccc3)c(-c3ccccc3)nc21
inactive: dose: 100.0 mg/kg/injection, schedule: Q01DX001 (ip), vehicle: Klucel (hydroxypropylcellulose) (HPC) 96 % of control | [1] 99 % of control | [2] 96 % of control

CC(C)CC(=O)CC(=O)C(C)(C)C.CC(C)CC(=O)CC(=O)C(C)(C)C.CC(C)CC(=O)CC(=O)C(C)(C)C.[Cr]
inactive: dose: 50.0 mg/kg/injection, schedule: Q01DX009 (ip), vehicle: distilled water + alcohol 97 % of control | dose: 100.0 mg/kg/injection, schedule: Q01DX009 (ip), vehicle: distilled water + alcohol 107 % of control | dose: 200.0 mg/kg/injection, schedule: Q01DX009 (ip), vehicle: distilled water + alcohol 103 % of control

CC(Cc1ccc(O)c(O)c1)C(C)Cc1ccc(O)c(O)c1 (stereo unspecified)
inactive: [3] 98 % of control and 106 % of control | [4] 101 % of control and 102 % of control | dose: 400.0 mg/kg/injection, schedule: Q01DX009 (ip), vehicle: saline 105 % of control and 94 % of control | dose: 600.0 mg/kg/injection, schedule: Q01DX009 (ip), vehicle: saline 98 % of control and 90 % of control

CC(C)c1nc2ccc(Cl)cc2[nH]1
inactive: dose: 50.0 mg/kg/injection, schedule: Q01DX005 (ip), vehicle: saline with Tween-80 105 % of control | dose: 100.0 mg/kg/injection, schedule: Q01DX005 (ip), vehicle: saline with Tween-80 100 % of control

COc1ccc(C(=O)c2ccccc2)cc1OC
inactive: dose: 25.0 mg/kg/injection, schedule: Q01DX009 (ip), vehicle: saline with Tween-80 100 % of control | [5] 100 % of control | [6] 98 % of control | [7] 98 % of control

C/C(=N/N(C)C)c1ccc(Cl)cc1
inactive: dose: 100.0 mg/kg/injection, schedule: Q01DX001 (ip), vehicle: saline 100 % of control | [1] 108 % of control | dose: 200.0 mg/kg/injection, schedule: Q01DX001 (ip), vehicle: saline 108 % of control | [2] 106 % of control | dose: 400.0 mg/kg/injection, schedule: Q01DX001 (ip), vehicle: saline 106 % of control

CC(=O)c1ccc(O)c(CN(CCC#N)CCC#N)c1O
inactive: [5] 96 % of control | [6] 89 % of control | [7] 90 % of control

NC(=O)N(CCO)/N=C/C=C/c1ccc([N+](=O)[O-])o1
inactive: [8] 106 % of control | [9] 115 % of control | [10] 108 % of control

O=C1CC(=O)OCCOCCOCCO1
inactive: [11] 98 % of control | [3] 117 % of control | [4] 101 % of control

CC(=O)OCC1(C)ON=C2CCCCC21 (stereo unspecified)
inactive: dose: 100.0 mg/kg/injection, schedule: Q01DX001 (ip), vehicle: saline with Tween-80 94 % of control | dose: 200.0 mg/kg/injection, schedule: Q01DX001 (ip), vehicle: saline with Tween-80 104 % of control | dose: 400.0 mg/kg/injection, schedule: Q01DX001 (ip), vehicle: saline with Tween-80 94 % of control

CC(=O)Nc1ccc(N=Nc2c(C)nn(C(=N)N)c2C)cc1
inactive: dose: 6.25 mg/kg/injection, schedule: Q01DX009 (ip), vehicle: saline 100 % of control and 103 % of control | dose: 12.5 mg/kg/injection, schedule: Q01DX009 (ip), vehicle: saline 108 % of control and 109 % of control and 93 % of control | dose: 25.0 mg/kg/injection, schedule: Q01DX009 (ip), vehicle: saline 114 % of control | [11] 123 % of control | dose: 50.0 mg/kg/injection, schedule: Q04DX003 (ip), vehicle: saline 98 % of control | dose: 100.0 mg/kg/injection, schedule: Q04DX003 (ip), vehicle: saline 110 % of control | dose: 200.0 mg/kg/injection, schedule: Q04DX003 (ip), vehicle: saline 122 % of control | dose: 300.0 mg/kg/injection, schedule: Q04DX003 (ip), vehicle: saline 121 % of control

Cn1c2cc(F)ccc2c(=O)c2c(O)cc3c(c21)C=CC(C)(C)O3
inactive: [8] 94 % of control | [9] 92 % of control | [10] 94 % of control

COC(=O)c1nc(=S)[nH]c(C(=O)OC)c1C(=O)c1ccc2ccccc2c1
inactive: dose: 60.0 mg/kg/injection, schedule: Q01DX005 (ip), vehicle: Klucel + Tween-80 94 % of control | dose: 120.0 mg/kg/injection, schedule: Q01DX005 (ip), vehicle: Klucel + Tween-80 95 % of control | dose: 240.0 mg/kg/injection, schedule: Q01DX005 (ip), vehicle: Klucel + Tween-80 95 % of control

CC1COC(C)(C)P(c2ccccc2)C1 (stereo unspecified)
inactive: dose: 60.0 mg/kg/injection, schedule: Q01DX005 (ip), vehicle: saline with Tween-80 102 % of control | dose: 120.0 mg/kg/injection, schedule: Q01DX005 (ip), vehicle: saline with Tween-80 105 % of control | dose: 240.0 mg/kg/injection, schedule: Q01DX005 (ip), vehicle: saline with Tween-80 106 % of control

O=C1c2ccccc2C(=O)c2c(NCCNCCNCCO)ccc(NCCNCCNCCO)c21
inactive: dose: 8.0 mg/kg/injection, schedule: Q01DX009 (ip), vehicle: acid diluted with saline 94 % of control | dose: 16.0 mg/kg/injection, schedule: Q01DX009 (ip), vehicle: acid diluted with saline 101 % of control | dose: 25.0 mg/kg/injection, schedule: Q01DX009 (ip), vehicle: water 111 % of control and 120 % of control | dose: 32.0 mg/kg/injection, schedule: Q01DX009 (ip), vehicle: acid diluted with saline 96 % of control | dose: 50.0 mg/kg/injection, schedule: Q01DX009 (ip), vehicle: water 111 % of control | dose: 64.0 mg/kg/injection, schedule: Q01DX009 (ip), vehicle: acid diluted with saline 98 % of control

O=C(N1CCCCC1Cc1ccccc1)C(Cl)(Cl)Cl (stereo unspecified)
inactive: dose: 30.0 mg/kg/injection, schedule: Q01DX005 (ip), vehicle: Klucel (hydroxypropylcellulose) (HPC) 101 % of control | [12] 101 % of control

CC(C)Cc1ncc(CC(C)C)n(O)c1=O
inactive: dose: 12.5 mg/kg/injection, schedule: Q01DX005 (ip), vehicle: distilled water + Tween-80 95 % of control | dose: 25.0 mg/kg/injection, schedule: Q01DX005 (ip), vehicle: distilled water + Tween-80 103 % of control | dose: 50.0 mg/kg/injection, schedule: Q01DX005 (ip), vehicle: distilled water + Tween-80 101 % of control | dose: 100.0 mg/kg/injection, schedule: Q01DX005 (ip), vehicle: distilled water + Tween-80 100 % of control

CCCCCCCCCC1(CC(=O)OCC)SCCN1C(N)=O (stereo unspecified)
inactive: dose: 50.0 mg/kg/injection, schedule: Q01DX009 (ip), vehicle: Klucel (hydroxypropylcellulose) (HPC) 113 % of control | dose: 100.0 mg/kg/injection, schedule: Q01DX009 (ip), vehicle: Klucel (hydroxypropylcellulose) (HPC) 107 % of control | dose: 200.0 mg/kg/injection, schedule: Q01DX009 (ip), vehicle: Klucel (hydroxypropylcellulose) (HPC) 115 % of control

CCCCC1CC=CC(NC#N)=N1 (stereo unspecified)
inactive: [5] 100 % of control | [6] 104 % of control | [7] 115 % of control

CC(C)CC1N=C(NN=C(CCl)CCl)OP1(=O)NCCCCCCNP1(=O)OC(NN=C(CCl)CCl)=NC1CC(C)C (stereo unspecified)
inactive: [12] 106 % of control

CC(C)CCN=C(N)N=C(N)N
inactive: dose: 60.0 mg/kg/injection, schedule: Q01DX005 (ip), vehicle: saline 100 % of control | dose: 120.0 mg/kg/injection, schedule: Q01DX005 (ip), vehicle: saline 109 % of control

Cc1ccc2snnc2c1
inactive: dose: 1.56 mg/kg/injection, schedule: Q01DX009 (ip), vehicle: Klucel (hydroxypropylcellulose) (HPC) 98 % of control | dose: 3.12 mg/kg/injection, schedule: Q01DX009 (ip), vehicle: Klucel (hydroxypropylcellulose) (HPC) 99 % of control | dose: 6.25 mg/kg/injection, schedule: Q01DX009 (ip), vehicle: Klucel (hydroxypropylcellulose) (HPC) 98 % of control and 95 % of control | dose: 12.5 mg/kg/injection, schedule: Q01DX001 (ip), vehicle: Klucel (hydroxypropylcellulose) (HPC) 100 % of control | dose: 25.0 mg/kg/injection, schedule: Q01DX001 (ip), vehicle: Klucel (hydroxypropylcellulose) (HPC) 95 % of control | dose: 50.0 mg/kg/injection, schedule: Q01DX001 (ip), vehicle: Klucel (hydroxypropylcellulose) (HPC) 99 % of control
